Results published in ChEMBL document CHEMBL1821553, “Yojironins E-I, prenylated acylphloroglucinols from Hypericum yojiroanum” (Bioorg Med Chem Lett, 2011).
In brackets after ≈: the same amount, converted by molar mass.

Key:
Aspergillus niger = assay: Antimicrobial activity against Aspergillus niger; assay type: functional, organism-based
Candida albicans = assay: Antimicrobial activity against Candida albicans; assay type: functional, organism-based
Cryptococcus neoformans = assay: Antimicrobial activity against Cryptococcus neoformans; assay type: functional, organism-based
[1] = system: Trichophyton mentagrophytes; assay: Antimicrobial activity against Trichophyton mentagrophytes; assay type: functional, organism-based
P388 = assay: Cytotoxicity against mouse P388 cells; assay type: functional, cell-based
KB = assay: Cytotoxicity against human KB cells; assay type: functional, cell-based

IC50 (Aspergillus niger): 16 µg/mL (≈ 36 µM)
IC50 (Candida albicans): 4 µg/mL (≈ 9 µM)
IC50 (Cryptococcus neoformans): 4 µg/mL (≈ 9 µM)
IC50 [1]: 4 µg/mL (≈ 9 µM)
SMILES: CCC(C)C(=O)C1=C(O)C(C)=C2O[C@@H](C(C)(C)O)C[C@@]2(C/C=C(\C)CCC=C(C)C)C1=O (stereo partly specified) [YOJIRONIN E]
IC50 (P388): 3.7 µg/mL (≈ 8.32 µM)
IC50 (KB): 5 µg/mL (≈ 11.2 µM)
